Several values for one entry are separate records, joined by “and”; a condition that tells them apart may be missing. Equal values may be shown once. Toxic doses and inconclusive results are not listed.

Data on 20 molecules can be found in PubChem BioAssay AID330 (DTP/NCI, 2004).

In the assay the test system is P388 leukemia ip, CD2F1 mice, survival T/C. Kind of assay: NCI In Vivo Anticancer Drug Screen. Data for tumor model P388 Leukemia (intraperitoneal) in CD2F1 (CDF1) mice. The settings on record: endpoint: median survival time, higher = longer survival. In outline:
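Mice carrying the transplanted tumor received test compound or vehicle. Survival was recorded in each group, and the value is the treated-group measurement divided by that of the vehicle-treated control group.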

[1] abbreviates: dose: 50.0 mg/kg/injection, schedule: Q01DX009 (ip), vehicle: saline.
Setting [2] is: dose: 100.0 mg/kg/injection, schedule: Q01DX009 (ip), vehicle: saline.
Where [3] appears, read: dose: 200.0 mg/kg/injection, schedule: Q01DX009 (ip), vehicle: saline.
The mark [4] stands for this setting: dose: 50.0 mg/kg/injection, schedule: Q01DX005 (ip), vehicle: Klucel (hydroxypropylcellulose) (HPC).
Setting [5] is: dose: 100.0 mg/kg/injection, schedule: Q01DX005 (ip), vehicle: Klucel (hydroxypropylcellulose) (HPC).
[6] abbreviates: dose: 200.0 mg/kg/injection, schedule: Q01DX005 (ip), vehicle: Klucel (hydroxypropylcellulose) (HPC).

As to `Fc1ccc(NC(=S)SCc2ccccc2)cc1F`, the T/C under setting [1] is 100 % of control, the T/C under setting [2] was 108 % of control and the T/C under setting [3] is 107 % of control.
`C=Cc1ccccc1-c1ccccc1C(=O)OC`: the T/C was 100 % of control (dose: 25.0 mg/kg/injection, schedule: Q04DX003 (ip), vehicle: saline with Tween-80); 101 % of control (dose: 50.0 mg/kg/injection, schedule: Q04DX003 (ip), vehicle: saline with Tween-80); 99 % of control (dose: 100.0 mg/kg/injection, schedule: Q04DX003 (ip), vehicle: saline with Tween-80).
For `C[CH2][Sn]([F])([F])[CH2]C`, the T/C runs as follows: (dose: 6.25 mg/kg/injection, schedule: Q04DX003 (ip), vehicle: saline) 107 % of control; (dose: 12.5 mg/kg/injection, schedule: Q04DX003 (ip), vehicle: saline) 108 % of control; (dose: 25.0 mg/kg/injection, schedule: Q04DX003 (ip), vehicle: saline) 116 % of control.
On to `COc1ccc(/C=N/Nc2nnc3c(n2)[nH]c2ccc(Br)cc23)cc1`, for which the T/C was 100 % of control (dose: 100.0 mg/kg/injection, schedule: Q04DX002 (ip), vehicle: saline with Tween-80); 109 % of control (dose: 200.0 mg/kg/injection, schedule: Q04DX002 (ip), vehicle: saline with Tween-80); 110 % of control (dose: 400.0 mg/kg/injection, schedule: Q04DX002 (ip), vehicle: saline with Tween-80).
For the molecule `COC(=O)CCSC(=O)NCCCCCCNC(=O)SCCC(=O)OC`, the T/C under setting [4] was 98 % of control, the T/C under setting [5] was 100 % of control and the T/C under setting [6] is 98 % of control.
With `Cc1ccc(S(=O)c2ccccc2)c(C(O)(C(F)(F)F)C(F)(F)F)c1` (stereo not drawn), the T/C is, setting by setting: (dose: 100.0 mg/kg/injection, schedule: Q04DX003 (ip), vehicle: Klucel (hydroxypropylcellulose) (HPC)) 91 % of control; (dose: 200.0 mg/kg/injection, schedule: Q04DX003 (ip), vehicle: Klucel (hydroxypropylcellulose) (HPC)) 93 % of control; (dose: 400.0 mg/kg/injection, schedule: Q04DX003 (ip), vehicle: Klucel (hydroxypropylcellulose) (HPC)) 94 % of control.
Regarding `CCN(CC)CCCNc1c(OC)cc(C)c2sc3ccccc3c(=O)c12`, the T/C under setting [1] was 102 % of control.
On to `CC(=O)NC1C(Nc2ccc(S(=O)(=O)Nc3ccnn3-c3ccccc3)cc2)OC(CO)C(O)C1O` (stereo not drawn), for which the T/C is, setting by setting: (dose: 50.0 mg/kg/injection, schedule: Q01DX005 (ip), vehicle: saline) 108 % of control; (dose: 100.0 mg/kg/injection, schedule: Q01DX005 (ip), vehicle: saline) 100 % of control; (dose: 200.0 mg/kg/injection, schedule: Q01DX005 (ip), vehicle: saline) 106 % of control.
Consider `COc1ccc(CCN(CCC#N)C(=O)C(Cl)Cl)cc1`, for which the T/C reads like this: under setting [4], 97 % of control; under setting [5], 97 % of control; under setting [6], 99 % of control.
Take `N#CC1(NO)CCCC1`: the T/C is 94 % of control under setting [1], 98 % of control under setting [2] and 89 % of control under setting [3].
On to `O=C1Nc2ccccc2/C1=C/c1ccco1`, for which the T/C is, setting by setting: (dose: 50.0 mg/kg/injection, schedule: Q01DX009 (ip), vehicle: Klucel (hydroxypropylcellulose) (HPC)) 99 % of control; (dose: 100.0 mg/kg/injection, schedule: Q01DX009 (ip), vehicle: Klucel (hydroxypropylcellulose) (HPC)) 113 % of control; (dose: 200.0 mg/kg/injection, schedule: Q01DX009 (ip), vehicle: Klucel (hydroxypropylcellulose) (HPC)) 89 % of control.
For `O=C1CCC2(CC(Br)C(=O)c3ccccc32)C(=O)N1` (stereo not drawn), the T/C is, setting by setting: (dose: 60.0 mg/kg/injection, schedule: Q01DX005 (ip), vehicle: Klucel (hydroxypropylcellulose) (HPC)) 113 % of control; (dose: 120.0 mg/kg/injection, schedule: Q01DX005 (ip), vehicle: Klucel (hydroxypropylcellulose) (HPC)) 113 % of control.
As for `O=C(O)C1=COC(OC2OC(CO)C(O)C(O)C2O)C2C(CO)=CCC12` (stereo not drawn), the T/C was 99 % of control and 108 % of control (dose: 5.0 mg/kg/injection, schedule: Q01DX009 (ip), vehicle: saline with Tween-80); 108 % of control and 96 % of control (dose: 10.0 mg/kg/injection, schedule: Q01DX009 (ip), vehicle: saline with Tween-80); 99 % of control and 104 % of control (dose: 20.0 mg/kg/injection, schedule: Q01DX009 (ip), vehicle: saline with Tween-80); 95 % of control (dose: 40.0 mg/kg/injection, schedule: Q01DX009 (ip), vehicle: saline with Tween-80); 99 % of control (dose: 80.0 mg/kg/injection, schedule: Q01DX009 (ip), vehicle: saline with Tween-80).
As for `c1ccc2c(c1)ccc1c2c[n+](CCCCCCCC[n+]2cc3c4ccccc4ccc3c3ccccc32)c2ccccc12`, the T/C runs as follows: (dose: 0.78 mg/kg/injection, schedule: Q01DX009 (ip), vehicle: distilled water + Tween-80) 172 % of control; (dose: 1.56 mg/kg/injection, schedule: Q01DX009 (ip), vehicle: distilled water + Tween-80) 163 % of control; (dose: 3.13 mg/kg/injection, schedule: Q01DX009 (ip), vehicle: distilled water + Tween-80) 204 % of control; (dose: 6.25 mg/kg/injection, schedule: Q01DX009 (ip), vehicle: distilled water + Tween-80) 209 % of control.
In the case of `Cc1ccc(S(=O)(=O)OCC(COS(=O)(=O)c2ccc(C)cc2)C(C)(C)C)cc1`, the T/C is, setting by setting: (dose: 50.0 mg/kg/injection, schedule: Q01DX005 (ip), vehicle: saline with Tween-80) 101 % of control; (dose: 100.0 mg/kg/injection, schedule: Q01DX005 (ip), vehicle: saline with Tween-80) 104 % of control; (dose: 200.0 mg/kg/injection, schedule: Q01DX005 (ip), vehicle: saline with Tween-80) 107 % of control.
In the case of `C=C(C)COc1ccc(C)cc1Br`, the T/C under setting [4] is 101 % of control, the T/C under setting [5] is 103 % of control and the T/C under setting [6] is 113 % of control.
On to `Cc1c(O)cnc2nn(-c3ccccc3)c(=N)n12`, for which the T/C is, setting by setting: (dose: 60.0 mg/kg/injection, schedule: Q01DX005 (ip), vehicle: saline with Tween-80) 91 % of control; (dose: 120.0 mg/kg/injection, schedule: Q01DX005 (ip), vehicle: saline with Tween-80) 92 % of control; (dose: 240.0 mg/kg/injection, schedule: Q01DX005 (ip), vehicle: saline with Tween-80) 90 % of control.
In the case of `Clc1ccc(C#Cc2ccc(Cl)cc2)cc1`, the T/C reads like this: (dose: 3.13 mg/kg/injection, schedule: Q01DX009 (ip), vehicle: saline with Tween-80) 109 % of control; (dose: 6.25 mg/kg/injection, schedule: Q01DX009 (ip), vehicle: saline with Tween-80) 113 % of control.
On to `O=C(Nc1ccc(C2=NCCCN2)cc1)c1ccc(C(=O)Nc2ccc(C3=NCCCN3)cc2)cc1`, for which the T/C (dose: 1.25 mg/kg/injection, schedule: Q04DX003 (ip), vehicle: saline with Tween-80) was 100 % of control; the T/C (dose: 2.5 mg/kg/injection, schedule: Q04DX003 (ip), vehicle: saline with Tween-80) is 113 % of control; the T/C (dose: 5.0 mg/kg/injection, schedule: Q01DX009 (ip), vehicle: saline) was 300 % of control; the T/C (dose: 10.8 mg/kg/injection, schedule: Q04DX003 (ip), vehicle: Klucel (hydroxypropylcellulose) (HPC)) was 151 % of control; the T/C (dose: 12.0 mg/kg/injection, schedule: Q04DX003 (ip), vehicle: Klucel (hydroxypropylcellulose) (HPC)) is 151 % of control; the T/C (dose: 18.0 mg/kg/injection, schedule: Q04DX003 (ip), vehicle: Klucel (hydroxypropylcellulose) (HPC)) is 165 % of control and 186 % of control and 198 % of control. Moreover, the T/C (dose: 20.0 mg/kg/injection, schedule: Q01DX009 (ip), vehicle: saline) was 100 % of control; the T/C (dose: 20.0 mg/kg/injection, schedule: Q04DX003 (ip), vehicle: Klucel (hydroxypropylcellulose) (HPC)) was 185 % of control; the T/C (dose: 20.0 mg/kg/injection, schedule: Q04DX003 (ip), vehicle: saline with Tween-80) was 204 % of control; the T/C (dose: 30.0 mg/kg/injection, schedule: Q04DX003 (ip), vehicle: Klucel (hydroxypropylcellulose) (HPC)) is 201 % of control; the T/C (dose: 33.3 mg/kg/injection, schedule: Q04DX003 (ip), vehicle: Klucel (hydroxypropylcellulose) (HPC)) is 250 % of control; the T/C (dose: 50.0 mg/kg/injection, schedule: Q04DX003 (ip), vehicle: Klucel (hydroxypropylcellulose) (HPC)) is 91 % of control.
As for `CC(C)CC(NC(=O)C(C)N)C(=O)NC(C)C(=O)NC1C(O)OC(CO)C(O)C1O` (stereo not drawn), the T/C by setting is: (dose: 100.0 mg/kg/injection, schedule: Q01DX001 (ip), vehicle: saline with Tween-80) 100 % of control; (dose: 200.0 mg/kg/injection, schedule: Q01DX001 (ip), vehicle: saline with Tween-80) 97 % of control; (dose: 400.0 mg/kg/injection, schedule: Q01DX001 (ip), vehicle: saline with Tween-80) 91 % of control.
